From ChEMBL document CHEMBL1909528, “Synthesis and 2D QSAR of O-sulphonated β-aminols derivatives as novel antifungal and antibacterial agents” (Bioorg Med Chem Lett, 2011)

Assays:
Aspergillus fumigatus = experiment: Antifungal activity against Aspergillus fumigatus by broth microdilution method; type: functional
Escherichia coli = experiment: Antibacterial activity against Escherichia coli ATCC 9637 by broth microdilution method; type: functional, organism-based
Candida albicans = experiment: Antifungal activity against Candida albicans by broth microdilution method; type: functional, organism-based
Cryptococcus neoformans = experiment: Antifungal activity against Cryptococcus neoformans by broth microdilution method; type: functional
Candida parapsilosis = experiment: Antifungal activity against Candida parapsilosis ATCC 22019 by broth microdilution method; type: functional; settings: Lodderomyces parapsilosis
Sporothrix schenckii = experiment: Antifungal activity against Sporothrix schenckii by broth microdilution method; type: functional, organism-based
[1] = system: Trichophyton mentagrophytes; experiment: Antifungal activity against Trichophyton mentagrophytes by broth microdilution method; type: functional, organism-based
Staphylococcus aureus = experiment: Antibacterial activity against Staphylococcus aureus ATCC 25923 by broth microdilution method; type: functional, organism-based

| SMILES | MIC (Aspergillus fumigatus) [µM] | MIC (Escherichia coli) [µM] | IC50 (Escherichia coli; read-out: IC50) [µM] | IC50 (Escherichia coli; read-out: pIC50 (converted)) [µM] | MIC (Candida albicans) [µM] | IC50 (Candida albicans; read-out: IC50) [µM] | MIC (Cryptococcus neoformans) [µM] | MIC (Candida parapsilosis) [µM] | MIC (Sporothrix schenckii) [µM] | IC50 (Sporothrix schenckii; read-out: IC50) [µM] | IC50 (Sporothrix schenckii; read-out: pIC50 (converted)) [µM] | IC50 (Candida albicans; read-out: pIC50 (converted)) [µM] | MIC [1] [µM] | IC50 ([1]; read-out: IC50) [µM] | IC50 ([1]; read-out: pIC50 (converted)) [µM] | MIC (Staphylococcus aureus) [µM] | IC50 (Staphylococcus aureus; read-out: IC50) [µM] | IC50 (Staphylococcus aureus; read-out: pIC50 (converted)) [µM] |
| --- | --- | --- | --- | --- | --- | --- | --- | --- | --- | --- | --- | --- | --- | --- | --- | --- | --- | --- |
| CC(C)(C)OC(=O)N(Cc1ccccc1)CC(OS(=O)(=O)c1ccc([N+](=O)[O-])cc1[N+](=O)[O-])c1ccccc1 (stereo unspecified) | > 50 | < 50 | 23.3 | 23.3 | < 50 | 0.54 | > 50 | > 50 | – | – | – | – | – | – | – | – | – | – |
| CC(C)c1cc(C(C)C)c(S(=O)(=O)OC(CN(Cc2ccccc2)C(=O)OC(C)(C)C)c2ccccc2)c(C(C)C)c1 (stereo unspecified) | > 50 | – | – | – | < 50 | 12.5 | > 50 | > 50 | < 50 | 46.4 | 46.4 | 12.5 | < 50 | 6.11 | 6.11 | – | – | – |
| COc1ccc(CN(CC(OS(=O)(=O)c2cccc([N+](=O)[O-])c2)c2ccccc2)C(=O)OC(C)(C)C)cc1 (stereo unspecified) | > 50 | – | – | – | – | – | > 50 | > 50 | < 50 | 6.24 | 6.24 | – | < 50 | 2.24 | 2.24 | – | – | – |
| COc1ccc(CN(CC(OS(=O)(=O)c2ccc(F)cc2)c2ccccc2)C(=O)OC(C)(C)C)cc1 (stereo unspecified) | > 50 | – | – | – | – | – | > 50 | > 50 | < 50 | 23.2 | 23.1 | – | < 50 | 2.76 | 2.76 | – | – | – |
| CC(C)(C)OC(=O)N(Cc1ccc(F)cc1)CC(OS(=O)(=O)c1cccc(Cl)c1Cl)c1ccccc1 (stereo unspecified) | > 50 | – | – | – | – | – | > 50 | > 50 | < 50 | 7.46 | 7.46 | – | < 50 | 0.53 | – | < 50 | 14.7 | 14.7 |
| CC(C)(C)OC(=O)N(Cc1ccc(F)cc1)CC(OS(=O)(=O)c1c(Cl)cccc1Cl)c1ccccc1 (stereo unspecified) | > 50 | – | – | – | – | – | > 50 | > 50 | – | – | – | – | – | – | – | < 50 | 12.5 | 12.5 |
| CC(C)(C)OC(=O)N(Cc1ccc(F)cc1)CC(OS(=O)(=O)c1cccc([N+](=O)[O-])c1)c1ccccc1 (stereo unspecified) | > 50 | – | – | – | – | – | > 50 | > 50 | – | – | – | – | – | – | – | < 50 | 39.9 | 39.8 |
| CC(C)(C)OC(=O)N(Cc1ccc(F)cc1)CC(OS(=O)(=O)c1ccc(F)cc1)c1ccccc1 (stereo unspecified) | > 50 | – | – | – | – | – | > 50 | > 50 | – | – | – | – | – | – | – | < 50 | 22.6 | 22.6 |
| CC(C)(C)OC(=O)N(Cc1ccc(Cl)c(Cl)c1)CC(OS(=O)(=O)c1cccc(Cl)c1Cl)c1ccccc1 (stereo unspecified) | > 50 | – | – | – | – | – | > 50 | > 50 | < 50 | 23.3 | 23.3 | – | – | – | – | – | – | – |
| CC(C)(C)OC(=O)N(Cc1ccc(Cl)c(Cl)c1)CC(OS(=O)(=O)c1cccc([N+](=O)[O-])c1)c1ccccc1 (stereo unspecified) | > 50 | – | – | – | – | – | > 50 | > 50 | < 50 | 24.4 | 24.4 | – | – | – | – | – | – | – |
| CC(C)(C)OC(=O)N(Cc1ccc(Cl)c(Cl)c1)CC(OS(=O)(=O)c1ccc(F)cc1)c1ccccc1 (stereo unspecified) | > 50 | – | – | – | – | – | > 50 | > 50 | < 50 | 43.3 | 43.3 | – | – | – | – | < 50 | 15.3 | 15.3 |
| COc1ccc(C(CN(Cc2ccccc2)C(=O)OC(C)(C)C)OS(=O)(=O)c2ccc(F)cc2)cc1 (stereo unspecified) | > 50 | – | – | – | – | – | > 50 | > 50 | – | – | – | – | < 50 | 22.8 | 22.9 | – | – | – |
| COc1ccc(C(CN(Cc2ccccc2)C(=O)OC(C)(C)C)OS(=O)(=O)c2c(Cl)cccc2Cl)cc1 (stereo unspecified) | > 50 | – | – | – | – | – | > 50 | > 50 | – | – | – | – | < 50 | 13.5 | 13.6 | – | – | – |
| COc1ccc(C(CN(Cc2ccccc2)C(=O)OC(C)(C)C)OS(=O)(=O)c2cccc(Cl)c2Cl)cc1 (stereo unspecified) | > 50 | – | – | – | – | – | > 50 | > 50 | < 50 | 13.4 | 13.4 | – | < 50 | 14.9 | 14.9 | – | – | – |
| Cc1ccc(C(CN(Cc2ccccc2)C(=O)OC(C)(C)C)OS(=O)(=O)c2c(Cl)cccc2Cl)cc1 (stereo unspecified) | > 50 | – | – | – | – | – | > 50 | > 50 | – | – | – | – | < 50 | 4.39 | 4.4 | – | – | – |
| Cc1ccc(C(CN(Cc2ccccc2)C(=O)OC(C)(C)C)OS(=O)(=O)c2cccc(Cl)c2Cl)cc1 (stereo unspecified) | > 50 | – | – | – | – | – | > 50 | > 50 | < 50 | 10.7 | 10.7 | – | – | – | – | – | – | – |
